# Experimental data as given in patent publication US6013768A, “Kainate-binding human CNS receptors of the EAA1 family” (priority 1997, dated 2000).
# Molecular target: T1, human EAA1a receptor (Homo sapiens, UniProt Q16099)
# T1 construct: expressed in transfected cells; host or cells: COS-1 (ATCC CRL 1650), transient expression, plasmid pcDNA1/humEAA1a
# T1 sequence (Q16099 21-956): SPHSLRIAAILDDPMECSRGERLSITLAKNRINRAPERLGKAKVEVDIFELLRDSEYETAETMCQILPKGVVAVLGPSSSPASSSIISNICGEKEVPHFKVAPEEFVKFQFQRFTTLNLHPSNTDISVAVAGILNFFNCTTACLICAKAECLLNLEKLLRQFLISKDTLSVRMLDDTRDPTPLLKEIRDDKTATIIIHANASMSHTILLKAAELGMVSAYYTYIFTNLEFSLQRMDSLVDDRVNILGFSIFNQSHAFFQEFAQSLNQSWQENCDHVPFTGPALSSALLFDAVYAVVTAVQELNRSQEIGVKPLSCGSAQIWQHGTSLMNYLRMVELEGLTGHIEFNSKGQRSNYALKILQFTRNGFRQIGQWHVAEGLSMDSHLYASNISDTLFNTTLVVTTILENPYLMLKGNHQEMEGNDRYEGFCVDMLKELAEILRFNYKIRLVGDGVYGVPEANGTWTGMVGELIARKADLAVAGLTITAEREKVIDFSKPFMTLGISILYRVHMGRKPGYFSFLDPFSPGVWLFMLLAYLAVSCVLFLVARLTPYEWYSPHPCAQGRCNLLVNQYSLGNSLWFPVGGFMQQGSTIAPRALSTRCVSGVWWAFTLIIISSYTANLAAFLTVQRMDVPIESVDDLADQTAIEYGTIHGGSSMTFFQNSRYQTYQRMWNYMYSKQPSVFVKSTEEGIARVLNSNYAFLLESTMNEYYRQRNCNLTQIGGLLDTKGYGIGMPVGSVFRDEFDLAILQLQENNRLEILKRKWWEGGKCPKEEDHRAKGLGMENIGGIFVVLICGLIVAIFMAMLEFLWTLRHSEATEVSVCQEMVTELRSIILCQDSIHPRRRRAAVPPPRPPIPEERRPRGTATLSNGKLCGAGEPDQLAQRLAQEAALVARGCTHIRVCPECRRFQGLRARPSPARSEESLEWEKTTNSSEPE
# Experiment: kainate binding assay, membranes of EAA1a-producing COS cells
# Protocol: Transfected cells in the frozen state were resuspended in ice-cold distilled water using a hand homogenizer and centrifuged for 20 minutes at 50,000 g. The supernatant was discarded and the membrane pellet stored frozen at -70° C.
# COS cell membrane pellets were suspended in ice cold 50 mM Tris-HCl (pH 7.55, 5° C.) and placed inside Spectrapor 7 (EDTA-treated, sulfur-free) dialysis tubing. The suspension was placed in 4 liters of ice cold 50 mM Tris-HCl (pH 7.55, 5° C.) and dialyzed for 16-24 hours at 5° C. in order to remove endogenous glutamate that would compete for binding. The tissue suspension was recovered from the tubing along with a small volume of buffer used to rinse the tubing. This resultant membrane preparation was used as tissue source for binding experiments described below.
# Binding assays were then performed, using an amount of COS-derived membrane equivalent to from 25-100 μg as judged by protein determination and selected radiolabelled ligand.
# For kainate binding assays, incubation mixtures consisted of 25-100 μg tissue protein and [vinylidene-^3 H] kainic acid (58 Ci/mmole, 5 nM final) in the cold incubation buffer, 1 ml final volume. Non-specific binding was in the presence of 1 mM L-glutamate. […] Filters were washed twice in 6 ml of the cold incubation buffer, then placed in scintillation vials with 5 ml of Beckman Ready-Safe scintillation cocktail for counting.
compound,measurement,setting,value
C=C(C)[C@H]1CN[C@H](C(=O)O)[C@H]1CC(=O)O [kainate],kainate binding affinity,"EAA1a-producing COS cell membranes, high affinity category i.e. nanomolar range",high affinity
same,specific binding of labelled kainate,"[3H]-kainate 5 nM labelled ligand, COS cell membranes, non-specific binding with 1 mM L-glutamate, FIG. 5",specific [^3 H]-kainate binding
